Measurements as given in US8609663B2, “Compounds for modulating TLR2” (priority 2009, dated 2013).
Entries after “also recorded” stand apart in the source; their conditions may differ.

What was measured:
[1] = tested on: LCMV-induced NF-κB activity; assay: cells; assay type: cell-based, human; conditions: for IC50: Homo sapiens, HEK293, read-out: 50% Inhibitory Dose
[2] = tested on: cytokine responses in mouse primary macrophages; assay type: cell-based
LCMV [3] = assay type: cell-based, lymphocytic choriomeningitis virus (LCMV); conditions: 3.3 μM
[4] = tested on: IL-8 production in primary human monocytes; assay type: cell-based
LCMV-Arm [5] = assay type: cell-based, lymphocytic choriomeningitis virus (LCMV)
TLR2 = assay type: cell-based, human
Tacaribe virus (TCRV) = assay type: cell-based
LCMV [6] = assay type: cell-based, lymphocytic choriomeningitis virus (LCMV)
[7] = tested on: LCMV-induced IL-8 production; assay type: cell-based, human
[8] = tested on: TNF-α-induced NF-κB activity; assay type: cell-based, human
[9] = tested on: Pam2CSK4 (TLR2 ligand) and LPS (TLR4 ligand) induced cytokine production; set-up: species or system C57BL/6 mice; conditions: mouse
[10] = tested on: Rift Valley Fever Virus (RVFV); assay type: cell-based
[11] = tested on: TNF-α-induced IL-8 production; assay type: cell-based, human
HSV-1 = HSV-1 (VP16-GFP strain) replication in Vero cells, GFP fluorescence; assay type: cell-based, Herpes simplex virus 1 (HSV-1); conditions: 24 hours, dose-dependent manner
HLA-ABC = assay type: cell-based, human
[12] = Preliminary toxicity observation in mice; conditions: injected intravenously at 16.67 mg/kg (200 μg/mouse)
[13] = tested on: HSV-induced NF-κB activation; assay: HSV-induced NF-κB luciferase assay in SZ10 cells; assay type: cell-based, human; conditions: HSV-1 7134R
LCMV-Arm [14] = assay type: in vivo, C57BL/6 mice

## O=C(Nc1cccnc1)c1ccc(NC(=O)C2OCCc3ccccc32)cc1 (centres unmarked) [Compound 135]
[1]
  % Inhibition: 60%
  LCMV-induced NF-κB activity and cytokine response: specifically inhibit
  IC50: 0.8 µM

## O=C1CC(c2ccc(F)cc2)CC2=C1C=Nc1ccccc1N2 (centres unmarked) [Compound 133]
[1]
  % Inhibition: 60%
  LCMV-induced NF-κB activity and cytokine response: specifically inhibit
  IC50: 0.8 µM

## O=C(NCCc1ccc(O)c(O)c1)c1nnc(-c2cccnc2)o1 [Compound 115]
[1]
  % Inhibition: 40%
  IC50: > 6.6 µM

## COc1cccc(NC(=O)NCc2noc3ccccc23)c1 [Compound 105]
[1]
  % Inhibition: 20%
  IC50: > 6.6 µM

## COc1cc(/C=C/C(=O)CC(=O)/C=C/c2ccc(O)c(OC)c2)ccc1O [Curcumin, reference compound]
[1]
  LCMV-induced NF-κB activation: effectively blocked

## CCOc1ccc(CCNC(=O)c2nc(-c3cccnc3)no2)cc1 [Compound 120]
[1]
  % Inhibition: 75%
  LCMV-induced NF-κB activity and cytokine response: specifically inhibit
  IC50: 0.8 µM

## COC(=O)c1ccc(NC(=O)NCc2noc3ccccc23)cc1 [Compound 106]
[1]
  % Inhibition: 75%
  IC50: 1.6 µM

## CC1CCN(Cc2ccc(NC(=O)Nc3cccs3)cc2)CC1 [Compound 107]
[1]
  % Inhibition: 47%
  IC50: 3 µM

## Cc1ccc2onc(CNC(=O)Nc3ccccc3N3CCN(C)CC3)c2c1 [Compound 109]
[1]
  % Inhibition: 39%
  IC50: > 6.6 µM

## COc1ccc(CCC(C)NC(=O)c2nnc(-c3cccnc3)o2)cc1 (centres unmarked) [Compound 117]
[1]
  % Inhibition: 27%
  IC50: > 6.6 µM

## Cc1ccc2onc(CNC(=O)Nc3cccc(C(F)(F)F)c3)c2c1 [Compound 102]
[1]
  % Inhibition: 27%
  IC50: > 6.6 µM

## CC1CCN(Cc2ccc(NC(=O)Nc3cn(C)c(=O)c4ccccc34)cc2)CC1 [Compound 108]
[1]
  % Inhibition: 39%
  IC50: > 6.6 µM

## CCc1ccc(CCNC(=O)c2nnc(-c3cccnc3)o2)cc1 [Compound 113]
[1]
  % Inhibition: 30%
  IC50: > 6.6 µM

## COc1cc(CCNC(=O)c2nnc(-c3cccnc3)o2)cc(OC)c1 [Compound 112]
[1]
  % Inhibition: 65%
  IC50: 0.4 µM

## O=C(NCCc1ccc(O)cc1)c1nnc(-c2cccnc2)o1 [Compound 114]
[1]
  % Inhibition: 31%
  IC50: > 6.6 µM

## O=C(COCc1cc(-c2ccco2)on1)Nc1cccnc1 [Compound 122]
[2]
  Pam2CSK4 induced RANTES in vitro in macrophages: inhibit
[1]
  % Inhibition: 50%
  LCMV-induced NF-κB activity and cytokine response: specifically inhibit
  IC50: 3.3 µM

## O=C(CCS(=O)(=O)c1nc(-c2ccc3c(c2)OCO3)cc(C(F)(F)F)n1)Nc1ccc(OC(F)(F)F)cc1 [Compound 125]
[1]
  % Inhibition: 60%
  LCMV-induced NF-κB activity and cytokine response: specifically inhibit
  IC50: 0.8 µM

## C=C1C(=O)O[C@@H]2C[C@@H](C)[C@@H]3C=CC(=O)[C@@]3(C)[C@@H](O)[C@H]12 [Helenalin, reference compound]
[1]
  LCMV-induced NF-κB activation: effectively blocked

## O=C(NCCc1ccc(-c2ccccc2)cc1)c1nnc(-c2cccnc2)o1 [Compound 116]
[1]
  % Inhibition: 50%
  IC50: 0.8 µM

## O=C(NCCc1cccc(Cl)c1)c1nnc(-c2cccnc2)o1 [Compound 118]
[1]
  % Inhibition: 50%
  IC50: 3.3 µM

## Cc1ccc2onc(CNC(=O)Nc3ccc(CN4CCC(C)CC4)cc3)c2c1 [Compound 101]
[1]
  % Inhibition: 60%
  IC50: 1.6 µM

## CC(C)[C@]12O[C@H]1[C@@H]1O[C@]13[C@]1(O[C@H]1C[C@H]1C4=C(CC[C@@]13C)C(=O)OC4)[C@@H]2O [Triptolide, reference compound]
[1]
  LCMV-induced NF-κB activation: effectively blocked

## CC1CCN(Cc2ccc(NC(=O)NCc3noc4ccccc34)cc2)CC1 [Compound 100]
[2]
  HSV-1 induced MCP-1 production: efficiently blocked
  HSV-1 induced RANTES production: efficiently blocked
  LCMV induced production of MCP-1: significantly inhibited
  LCMV induced production of RANTES: significantly inhibited
  LPS induced MCP-1 production: inhibited
  Pam2CSK4 induced MCP-1 production: inhibited
  Pam2CSK4 induced RANTES in vitro in macrophages: inhibit
  poly IC induced production of MCP-1: did not affect
  poly IC induced production of RANTES: did not affect
LCMV [3]
  LCMV replication in Vero cells: significantly inhibited
[4]
  LCMV induced IL-8 production: significant (p<0,01 by two-tailed Student's t test) reduction
  poly IC induced production of IL-8: did not affect
  recombinant human TNF-α induced production of IL-8: did not affect
LCMV-Arm [5]
  LCMV replication in BHK-21 cells: inhibited
TLR2
  LCMV-induced enhanced expression of TLR2: specifically prevented
  TNF-α-induced expression of TLR2: did not affect
Tacaribe virus (TCRV)
  replication and production of TCRV: can inhibit
LCMV [6]
  LCMV replication (expression of LCMV-NP) in SZ10 cells: significantly inhibited; also recorded: dramatically inhibited
  LCMV replication in HEK cells that did not express TLR2: could also inhibit
[7]
  LCMV-induced IL-8 production: dramatically inhibited
[8]
  TNF-α-induced NF-κB activity: did not affect
[9]
  LPS induced IL-6 induction in vivo: inhibits
  Pam2CSK4 induced IL-6 induction in vivo: inhibits
[9]; in vivo, iv
  LPS induced IL-6 production in serum: significantly blocked
  LPS induced MCP-1 production in serum: significantly blocked
  LPS-induced RANTES production in serum: did not affect
  Pam2CSK4-induced RANTES production in serum: did not affect
  Pam2CSK4 induced IL-6 production in serum: significantly blocked
  Pam2CSK4 induced MCP-1 production in serum: significantly blocked
[10]
  activity against RVFV: no role
[11]
  TNF-α-induced IL-8 production: did not affect
HSV-1
  HSV-1 replication: inhibits
HLA-ABC
  expression of HLA-ABC: did not affect; also recorded: not affected
[1]
  % Inhibition: 80%
  LCMV-induced NF-κB activity: dramatically inhibited
  LCMV-induced NF-κB activity and cytokine response: specifically inhibit
  IC50: 1 µM
[12]
  toxic effect in mice: no apparent toxic effect
[13]
  HSV-induced NF-κB activation: Blocks
LCMV-Arm [14]; 48 h post-infection, n=8, p<0.05 vs DMSO-treated or untreated mice
  levels of virus in the spleen: significantly lower
LCMV-Arm [14]; Example 13, i.v. 16.67 mg/kg (200 μg/mouse), serum MCP-1
  LCMV-induced inflammation in a mouse model: Inhibits
LCMV-Arm [14]; single dose 400 μg/mouse (16 mg/kg), 18 h post-infection, vs DMSO
  LCMV induced MCP-1 production in serum: significant decrease
LCMV-Arm [14]; single dose 400 μg/mouse, 18 h post-infection
  LCMV induced type I IFN production: did not affect

## O=C(CN(C1=NC2CS(=O)(=O)CC2S1)c1ccc(F)cc1)Nc1ccccc1C(F)(F)F (centres unmarked) [Compound 134]
[1]
  % Inhibition: 50%
  LCMV-induced NF-κB activity and cytokine response: specifically inhibit
  IC50: 1.6 µM

## O=C(NCc1noc2ccccc12)Nc1cccc(Cl)c1 [Compound 103]
[1]
  % Inhibition: 26%
  IC50: > 6.6 µM

## O=C(NCc1cccnc1)c1ccc(CSCc2cccc(F)c2)o1 [Compound 121]
[1]
  % Inhibition: 60%
  LCMV-induced NF-κB activity and cytokine response: specifically inhibit
  IC50: 0.8 µM

## O=C(/C=C/c1ccc(O)c(O)c1)OCCc1ccccc1 [CAPE, reference compound]
[1]
  LCMV-induced NF-κB activation: effectively blocked

## O=C(NCCc1ccccc1)c1nnc(-c2cccnc2)o1 [Compound 110]
[1]
  % Inhibition: 40%
  IC50: > 6.6 µM

## COc1ccc(C2C3=C(CCCC3=O)Nc3[nH]nc(-c4ccc(Cl)cc4)c32)cc1OC (centres unmarked) [Compound 132]
[1]
  % Inhibition: 75%
  LCMV-induced NF-κB activity and cytokine response: specifically inhibit
  IC50: 0.8 µM
